Values of other authors, collected in patent publication US6730664B1, “Formulations for parenteral use of estramustine phosphate and sulfoalkyl ether cyclodextrins” (Pharmacia Italia S.p.A., priority 1999, dated 2004).

Conditions: patients, slow intravenous injection or bolus, 300 mg/day

C[C@]12CC[C@@H]3c4ccc(OC(=O)N(CCCl)CCCl)cc4CC[C@H]3[C@@H]1CC[C@@H]2OP(=O)(O)O [estramustine phosphate, Estramustine phosphate]
side effects at the peripheral intravenous injection sites: thrombophlebitis and local irritations
